Results taken from US20230302159A1, “COMPOUNDS AND COMPOSITIONS FOR TUMOR DETECTION AND SURGICAL GUIDANCE” (Cornell University, priority 2020, published 2023).

Columns and labels:
[1] = Optical properties of the CypH dyes: absorbance maximum and extinction coefficient in EtOH (Table 1); assay type: physicochemical; settings: for Ex Coeff (M^−1cm^−1) @ Abs Max: at absorbance maximum
Experimental: Characterization: All new CypH dyes were characterized by proton NMR and mass spectrometry to confirm identity. NMR data was consistent with the structure and mass spectrometry results gave the expected mass of the dye±0.5 amu. An HPLC method was developed (see below) and used to assess dye purity. […] Retention times on the column generally correlated with lipophilicity of the dyes with water soluble dyes containing sulfate groups eluting out earlier (@10.6 min for CypH-3, 6, 9) than CypH-1 (@11.9 min) and the more lipophilic dyes later. Optical properties of the dyes, acid dissociation constants and solubilities were also determined. Synthetic intermediates were also characterized by proton NMR.

[2] = pKa measurement by fluorescence intensity in the pH range 2.0-11.0 (plate reader); assay type: physicochemical; settings: for pKa: 2 μM in 20 mM phosphate-buffered solution, pH 2.0-11.0, λex=725 nm, λem=785 nm; for pH dependency of fluorescence: different pH solutions
Experimental: (A) The structure of CypH-1 (B) Schematic diagram of the fluorescence activation of CypH-11 by protonation. […] Their fluorescence intensity in the pH range (2.0-11.0) was measured (λex=725 nm and λem=785 nm) using a plate reader. (D) Fluorescence image of CypH-11 and CypH-1 in a 96-well plate at different pHs.
Spectroscopic analysis. Stock solutions (1 mM in DMSO) of CypH-11, CypH-1, and Cy7 were stored at a −30° C. freezer and used for the following experiments. For the pKa measurement, the respective compound was diluted in 20 mM phosphate-buffered solution (PBS, pH 2.0-11.0) to a final concentration of 2 μM. The fluorescence intensity (λex=725 nm and λcm=785 nm) was measured on a plate reader (Tecan Infinite M1000 Pro), and the fluorescence images were recorded with a fluorescence imaging system (Bruker In-vivo F Pro). For the quantum yield measurement, indocyanine green (ICG, Φ=1.2% in water) was used as the standard compound. The respective compound (0.4, 0.8, 1.2, 1.6, and 2.0 μM) in PBS solutions (pH=4.0 and pH=7.4) was measured using a Cary 60 UV-Vis spectrophotometer and Cary Eclipse fluorescence spectrophotometer (Agilent). The slope of fluorescence vs absorbance was compared with that of ICG to calculate the relative quantum yield.

OVASAHO cells [3] = test: In vitro fluorescence microscopy and intracellular localization; assay type: cell-based; settings: 2 μM, 1 hr; for Pearson value, overlap with the mitochondria tracker: co-staining with mitochondria tracker; for cellular fluorescence image in the presence of dye-containing medium (no washing): without washing
Experimental: Evaluation of CypH-11 in cancer cells. An ovarian cancer cell line, OVASAHO, was used to evaluate the performance of CypH-11, CypH-1, and Cy7. OVASAHO cells were incubated with the respective probe (2 μM) for 1 hr, and the cellular fluorescence images were captured in the presence of the dye-containing medium (FIG. 13A). […] This distinct difference is because of the pH sensitivity of CypH-11 and CypH-1. Both of them have low fluorescence in the cell culture medium (pH=7.4), but their fluorescence is turned on upon entering the cellular acidic compartments. […] After washing with a fresh culture medium, the cell images were captured again (FIG. 19). […] The intracellular distribution of dyes was investigated by co-staining with mitochondrial, lysosomal and nuclear trackers (FIG. 13B).
In vitro fluorescence microscopy. OVASAHO cells were used to compare the cellular performance and cellular distribution of CypH-11, CypH-1, and Cy7. OVASAHO cells (1.0×10^4) were seeded on a 96-well black plate (Corning, NY) and incubated in the supplemented medium for 24 hrs. Compounds (2 μM) were added and the cells were incubated for 1 hr. Before PBS washing, the cellular fluorescence images were captured with a fluorescence microscope (Cy7 filter, excitation: 690-730 nm and emission: 770-850 nm). After PBS washing (3×), the cellular images were captured again. For the co-localization experiment, OVASAHO cells (5.0×10^3) were incubated on a 96 well plate (ibiTreat, 180 μm coverslip, ibidi) with a clear and flat bottom. After treatment with CypH-11 (2 μM) or CypH-1 (2 μM) for 1 hr, the cells were washed with medium (3×). The cells were stained with Mitoview Green (Biotium, Parkway Fremont, CA) for 15 min or Lysoview 488 (Biotium) for 30 min. After washing with medium (3×), cells were further stained with DAPI (Invitrogen) for 10 min. The fluorescence images were captured using a fluorescence microscope (EVOS) after replacing the medium with a fresh cell culture medium. CypH-11 and CypH-1 images were obtained with a Cy7 filter, DAPI images with a DAPI filter (excitation: 352-402 nm and emission: 417-477 nm), Mitoview Green and Lysoview 488 images with a GFP filter (excitation: 457-487 nm and emission: 502-538 nm).

OVASAHO cells [4] = test: Cell viability, cell counting kit-8 (CCK-8); assay type: cell-based; settings: 2 μM for 1 hr, then 72 hrs in fresh medium
Experimental: Cell viability. The cell viability of CypH-11 and CypH-1 were evaluated using the cell counting kit-8 (CCK-8) from Dojindo (Rockville, MD). OVASAHO cells (5.0×10^3) were seeded on a 96-well plate and cultured for 24 hrs. Then the cells were treated with CypH-11 (2 μM) and CypH-1 (2 μM) for 1 hr. After replacing the medium with fresh cell culture medium, the cells were incubated for another 72 hrs. The cell viability was examined by treating them with CCK-8 solution for 3 hrs and reading the absorbance at 450 nm using a plate reader.

RFP-ovsaho tumors = test: In vivo imaging study, spray on about 2 mm subcutaneous RFP-ovsaho tumors (Example 1); parameters: species or system mice; settings: for tumor contrast after spray: 2 μM sprayed, no washing
Experimental: In vivo imaging study. The animals inoculated with RFP-ovsaho cells in flank were used for the imaging study. To imitate the morphology of metastasized human ovarian cancer, the tumor size was controlled to 2 mm. The skin was removed prior to the spray of dye (2 μM, in saline). The tumor areas were sprayed and imaged using Cy7 filter set at different time points. RFP images were also acquired for tumor co-registration. The contrast ratio was calculated by [signal of tumor]/[signal of adjacent muscle]. Following the in vitro and cellular validation, we thought that the best candidate, CypH-11, which has excellent fluorescence property in different pH and in cells, could be an ideal agent to augment the detection of small cancerous lesions otherwise unnoticeable to surgeons. To verify the presumption, RFP positive ovsaho ovarian cancer cells were subcutaneously inoculated in mice. When tumors were about 2 mm in size, the skin was removed and the CypH-11 solution (2 μM in saline) was sprayed onto the tumor areas. […] The contrast continued to increase slightly and quickly reached plateau at ˜7 min. The tumor signal is about 150% higher than the adjacent muscle tissues, and the CypH-11 signal co-registered well with the RFP signal. […] In a separate set of experiment, animals were inoculated with two tumors. Each tumor was sprayed either with the prototype dye CypH-1 or CypH-11, and imaged simultaneously.

Compound | Ex Coeff (M^−1cm^−1) @ Abs Max [1] | Abs. Max (nm) in EtOH [1] [nm] | pKa [2] | pH dependency of fluorescence [2] | cellular fluorescence after washing (OVASAHO cells [3]) | Pearson value, overlap with the mitochondria tracker (OVASAHO cells [3]) | cellular fluorescence image in the presence of dye-containing medium (no washing) (OVASAHO cells [3]) | cell viability (OVASAHO cells [4]) [%] | tumor contrast after spray (RFP-ovsaho tumors) | normalized fluorescence relative to that of CypH-1 ([2]; at pH 6.0-6.5, in solution) | time to contrast plateau (RFP-ovsaho tumors; 2 μM in saline, sprayed) [min] | tumor signal higher than the adjacent muscle tissues (RFP-ovsaho tumors; 2 μM in saline, sprayed) | time to fluorescent signal highlighting the tumor after spray (RFP-ovsaho tumors; 2 μM in saline, sprayed, about 2 mm tumors)
CN(C)c1ccc(OC2=C(/C=C/C3=[N+](C)c4ccccc4C3(C)C)CCC/C2=C\C=C2\N(C)c3ccccc3C2(C)C)cc1.[Cl-] [CypH-1, reference compound] | 74,450 M^−1cm^−1 | 760 | 4.7 | low fluorescence in neutral and basic solutions, but strong fluorescence in acidic solutions | high fluorescence | 0.90 | Strong intracellular fluorescence and low medium fluorescence | 95.5±6.9 | minimally contrast | – | – | – | –
CC(C)N(C)c1ccc(OC2=C(/C=C/C3=[N+](C(C)C)c4ccccc4C3(C)C)CCC/C2=C\C=C2\N(C(C)C)c3ccccc3C2(C)C)cc1.[I-] [CypH-11] | 233,800 M^−1cm^−1 | 771 | 6 | low fluorescence in neutral and basic solutions, but strong fluorescence in acidic solutions | high fluorescence | 0.70 | Strong intracellular fluorescence and low medium fluorescence | 91.0±4.6 | near instant signal enhancement | about 3.4 fold | ~7 | about 150% | within a minute
